Measurements as given in publication PMC3557602 (Analytical biochemistry, 2012).
Entries after “also recorded” stand apart in the source; their conditions may differ. Where a name gives a salt, the structure may show the parent alone. Blank lines part the entries; values can stand above or below the molecule they belong to.

Columns and labels:
[1] = cited from earlier work
[2] = biological target: T1, Nterm-phos activity of human sEH (Homo sapiens, UniProt P34913); test: AttoPhos fluorescent endpoint HTS assay for sEH phosphatase activity; type: biochemical; conditions: for inhibition of Nterm-phos in library screen: pesticide library; for Nominal Inhibition (%): [E] 2.1 nM, AttoPhos 25 μM, 60 min, 96-well; for inhibition at 10 µM: read-out: inhibition of Nterm-phos in library screen
T1 sequence (P34913 1-555): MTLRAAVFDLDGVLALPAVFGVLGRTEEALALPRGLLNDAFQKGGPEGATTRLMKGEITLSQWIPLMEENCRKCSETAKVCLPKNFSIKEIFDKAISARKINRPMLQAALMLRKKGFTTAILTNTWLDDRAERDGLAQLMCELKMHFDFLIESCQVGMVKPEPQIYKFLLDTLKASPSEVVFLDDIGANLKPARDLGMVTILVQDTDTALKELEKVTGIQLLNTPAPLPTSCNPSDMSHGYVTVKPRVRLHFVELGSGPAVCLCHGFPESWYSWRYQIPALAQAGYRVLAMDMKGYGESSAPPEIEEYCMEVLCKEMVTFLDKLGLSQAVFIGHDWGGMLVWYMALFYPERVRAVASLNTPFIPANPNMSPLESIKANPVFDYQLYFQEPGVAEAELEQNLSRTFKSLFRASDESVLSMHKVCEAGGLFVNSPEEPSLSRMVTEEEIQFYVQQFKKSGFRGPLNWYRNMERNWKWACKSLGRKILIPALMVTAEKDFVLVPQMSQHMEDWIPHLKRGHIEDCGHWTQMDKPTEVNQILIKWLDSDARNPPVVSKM

[3] = biological target: T1, Nterm-phos activity of human sEH; test: AttoPhos assay in kinetic mode; type: biochemical
[4] = biological target: T2, Cterm-EH activity of human sEH (Homo sapiens, UniProt P34913); test: Inhibition of sEH epoxide hydrolase activity; type: biochemical; conditions: for IC50: IC50 for Cterm-EH
T2 sequence (P34913 1-555): T1 sequence (P34913 1-555)

[5] = biological target: T3, human microsomal EH (Homo sapiens, UniProt P07099); test: Selectivity: microsomal EH inhibition; type: biochemical
T3 sequence (P07099 1-455): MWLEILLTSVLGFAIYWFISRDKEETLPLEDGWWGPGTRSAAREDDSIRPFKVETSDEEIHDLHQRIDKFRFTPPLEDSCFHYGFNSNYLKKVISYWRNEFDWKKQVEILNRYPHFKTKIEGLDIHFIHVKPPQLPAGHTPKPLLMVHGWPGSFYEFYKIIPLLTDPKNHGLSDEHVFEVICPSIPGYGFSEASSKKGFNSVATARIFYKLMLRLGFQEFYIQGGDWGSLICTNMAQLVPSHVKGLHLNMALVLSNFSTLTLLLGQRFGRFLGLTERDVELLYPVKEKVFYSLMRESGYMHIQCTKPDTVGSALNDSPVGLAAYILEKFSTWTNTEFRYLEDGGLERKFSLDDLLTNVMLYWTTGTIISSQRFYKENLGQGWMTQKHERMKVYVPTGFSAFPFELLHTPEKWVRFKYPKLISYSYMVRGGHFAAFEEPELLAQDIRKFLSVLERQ

[6] = tested on: human alkaline phosphatase; test: Selectivity: alkaline phosphatase inhibition; type: biochemical
[7] = tested on: a series of esterases and amidases; test: Selectivity: esterases and amidases inhibition; type: biochemical
[8] = biological target: T4, Nterm-phos expressed alone (Homo sapiens, UniProt P34913); test: Inhibition of the N-terminal domain expressed separately; type: biochemical; conditions: 10 μM for 5 min
T4 sequence (P34913 1-224 limits assumed): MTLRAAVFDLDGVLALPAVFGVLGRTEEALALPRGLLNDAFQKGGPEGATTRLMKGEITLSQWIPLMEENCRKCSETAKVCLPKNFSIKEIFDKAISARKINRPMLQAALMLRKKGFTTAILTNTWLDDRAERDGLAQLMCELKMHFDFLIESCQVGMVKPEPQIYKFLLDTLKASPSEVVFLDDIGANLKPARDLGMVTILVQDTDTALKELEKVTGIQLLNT

[9] = biological target: T5, Cterm-EH expressed alone (Homo sapiens, UniProt P34913); test: Inhibition of the C-terminal domain expressed separately; type: biochemical; conditions: 10 μM for 5 min
T5 sequence (P34913 235-555 limits assumed): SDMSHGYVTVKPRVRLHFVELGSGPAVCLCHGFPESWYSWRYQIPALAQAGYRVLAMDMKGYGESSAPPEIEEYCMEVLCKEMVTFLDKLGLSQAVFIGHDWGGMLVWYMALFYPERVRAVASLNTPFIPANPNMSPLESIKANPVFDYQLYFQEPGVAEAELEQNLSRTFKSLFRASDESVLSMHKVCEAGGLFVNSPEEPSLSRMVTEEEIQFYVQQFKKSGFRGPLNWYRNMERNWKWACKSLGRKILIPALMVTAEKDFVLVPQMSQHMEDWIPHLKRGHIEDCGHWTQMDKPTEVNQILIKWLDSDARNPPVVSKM

[10] = biological target: T1, Nterm-phos activity of human sEH; test: Reversibility; type: biochemical
[11] = biological target: T2, Cterm-EH activity of human sEH; test: Reversibility; type: biochemical
[12] = biological target: T1, Nterm-phos activity of human sEH; test: Kinetic constants with a model of irreversible inhibition, AttoPhos 25 μM; type: biochemical
[13] = biological target: T2, Cterm-EH activity of human sEH; test: Kinetic constants with a model of irreversible inhibition, PHOME 50 μM; type: biochemical; conditions: n = 3
[14] = read-out: IC50 (nominal inhibition column), nominal / overall value
[15] = read-out: IC50 Day 1, Day 1, 3 plates
[16] = read-out: IC50 Day 2, Day 2, 3 plates
[17] = read-out: IC50 Day 3, Day 3, 3 plates
[18] = 20 nM human sEH with 10 μM for 15 min, then dialysis
[19] = 5 mM glutathione before 10 μM for 5 min

Compound: CCCCC(CC)CCC(CC(C)C)OS(=O)(=O)O (stereo not shown) [sodium tetradecyl sulfate]
critical micelle concentration [1]: around 2 mM

Nominal Inhibition (%) ([2]; [I] 0.8 μM): 19 ± 4% | Nominal Inhibition (%) ([2]; [I] 1.6 μM): 39 ± 5% | Nominal Inhibition (%) ([2]; [I] 3.1 μM): 70 ± 3% | Nominal Inhibition (%) ([2]; [I] 6.3 μM): 91 ± 1% | Nominal Inhibition (%) ([2]; [I] 12.5 μM): 98 ± 1% | IC50 [2, 14]: 2200 ± 300 nM | IC50 [2, 15]: 1800 ± 200 nM | IC50 [2, 16]: 2300 ± 200 nM | IC50 [2, 17]: 2400 ± 100 nM
Compound: CCCCCCCCCCCCOP(=O)(O)O [C00003, dodecyl phosphoric acid]
inhibition of Nterm-phos in library screen ([2]; 1 μM): more than 50% | inhibition of Nterm-phos in library screen ([2]; 10 μM): more than 50%

IC50 [3]: 400 ± 20 nM | IC50 ratio Cterm-EH over Nterm-phos [4]: 5 fold | IC50 ([4]; incubation time 1 min): 2000 ± 300 nM | IC50 ([4]; incubation time 15 min): 850 ± 50 nM | inhibition of human microsomal EH [5]: not the other enzymes tested | inhibition of Nterm-phos expressed alone [8]: totally inhibited | inhibition of Cterm-EH expressed alone [9]: did not significantly inhibit | time to stable inhibition of Nterm-phos [10]: less than a minute | recovery of Nterm-phos activity after dialysis [10, 18]: not able to recover any | effect of glutathione pretreatment on Nterm-phos activity [10, 19]: protected | recovery of Cterm EH activity after dialysis [11, 18]: not able to recover any | effect of glutathione pretreatment on Cterm-EH activity [11, 19]: protected | Cterm-EH activity recovered on glutathione added after exposure ([11]; glutathione added 5 min after exposure): 30% | Ki [12]: 550 nM | ratio of ki, Nterm-phos over Cterm-EH [12]: around 7 fold | first-order formation rate of the covalent enzyme-inhibitor complex (ki), Nterm-phos ([12]; n = 3): 2.58 ± 0.05 min⁻¹ | first-order formation rate of the covalent enzyme-inhibitor complex (ki), Cterm-EH [13]: 0.39 ± 0.07 min⁻¹
Compound: O=c1c2ccccc2[se]n1-c1ccccc1 [ebselen]
inhibition of human alkaline phosphatase [6]: did not inhibit; also recorded: not the other enzymes tested | inhibition of esterases and amidases [7]: not the other enzymes tested

IC50 [3]: > 100000 nM
Compound: CC(=O)N1CCN(c2ccc(OCC3COC(Cn4ccnc4)(c4ccc(Cl)cc4Cl)O3)cc2)CC1 (stereo not shown) [ketoconazole]

IC50 [3]: > 100000 nM
Compound: O=C(O)c1ccccc1C(=O)Nc1ccc(S(=O)(=O)Nc2nccs2)cc1 [phthalyl-sulfathiazole]

Compound: O=C1c2ccccc2C(=O)N1SC(Cl)(Cl)Cl [Folpet]
inhibition at 10 µM [2]: > 50% | IC50 [3]: 25000 ± 3000 nM

Nominal Inhibition (%) ([2]; [I] 1.6 μM): 9 ± 6% | Nominal Inhibition (%) ([2]; [I] 3.1 μM): 26 ± 4% | Nominal Inhibition (%) ([2]; [I] 6.3 μM): 54 ± 4% | Nominal Inhibition (%) ([2]; [I] 12.5 μM): 78 ± 3% | Nominal Inhibition (%) ([2]; [I] 25 μM): 89 ± 1% | IC50 [2, 14]: 6600 ± 800 nM | IC50 [2, 15]: 6300 ± 300 nM | IC50 [2, 16]: 6100 ± 300 nM | IC50 [2, 17]: 7500 ± 1200 nM
Compound: CCCCCCCCCCCCS(=O)(=O)O [C00002, dodecyl sulfonate]

Compound: S=C(S)NCCNC(=S)S [Nabam]
inhibition at 10 µM [2]: > 50% | IC50 [3]: > 100000 nM
